Measurements published in patent US12180187B2, “1-phenyl-5-azinylpyrazolyl-3-oxyalkyl acids and their use for controlling unwanted plant growth” (BAYER AKTIENGESELLSCHAFT, priority 2019, dated 2024).

How the values were obtained:
ALOMY [1] = experiment: Pre-emergence action against ALOMY, 1280 g/ha; type: in vivo, Alopecurus myosuroides; conditions: visual scoring after about 3 weeks vs untreated controls, 100% = plants have died, 0% = like control plants
Method in brief: (§1)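 Compound applied as WP or EC in aqueous spray (0.5% additive, 600 L/ha) to the surface of sandy loam covering freshly sown seeds. After about 3 weeks under good greenhouse conditions, damage is given as visual percentage, 100% meaning plant death.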

DIGSA [2] = experiment: Pre-emergence action against DIGSA, 1280 g/ha; type: in vivo, Digitaria sanguinalis; conditions: visual scoring after about 3 weeks vs untreated controls, 100% = plants have died, 0% = like control plants
Method in brief: as §1

ECHCG [3] = experiment: Pre-emergence action against ECHCG, 1280 g/ha; type: in vivo, Echinochloa crus-galli; conditions: visual scoring after about 3 weeks vs untreated controls, 100% = plants have died, 0% = like control plants
Method in brief: as §1

LOLRI = experiment: Pre-emergence action against LOLRI, 1280 g/ha; type: in vivo, Lolium rigidum; conditions: visual scoring after about 3 weeks vs untreated controls, 100% = plants have died, 0% = like control plants
Method in brief: as §1

POAAN [4] = experiment: Pre-emergence action against POAAN, 1280 g/ha; type: in vivo, Poa annua; conditions: visual scoring after about 3 weeks vs untreated controls, 100% = plants have died, 0% = like control plants
Method in brief: as §1

SETVI [5] = experiment: Pre-emergence action against SETVI, 1280 g/ha; type: in vivo, Setaria viridis; conditions: visual scoring after about 3 weeks vs untreated controls, 100% = plants have died, 0% = like control plants
Method in brief: as §1

ABUTH [6] = experiment: Pre-emergence action against ABUTH, 1280 g/ha; type: in vivo, Abutilon theophrasti; conditions: scored visually after about 3 weeks vs untreated controls (100% = plants have died)
Excerpt: 1. Pre-Emergence Herbicidal Effect and Crop Plant Compatibility a) Seeds of mono- and dicotyledonous weed plants are placed in plastic pots in sandy loam soil (doubly sown with one species each of mono- or dicotyledonous weed plants per pot) and covered with soil. The compounds of the invention, formulated in the form of wettable powders (WP) or as emulsion concentrates (EC), are then applied onto the surface of the covering soil as aqueous suspension or emulsion with addition of 0.5% additive at a water application rate equivalent to 600 litres per hectare. After the treatment, the pots are placed in a greenhouse and kept under good growth conditions for the trial plants. After about 3 weeks, the effect of the preparations is scored visually in comparison with untreated controls as percentages. For example, 100% activity=the plants have died, 0% activity=like control plants. 1. Pre-Emergence Effectiveness Tables 1 to 12 below show the effects of selected compounds of the general formula (I) according to Tables 1 and 2 on various harmful plants and at an application rate corresponding to 1280 g/ha, which were obtained by the experimental procedure mentioned above.

AMARE [7] = experiment: Pre-emergence action against AMARE, 1280 g/ha; type: in vivo, Amaranthus retroflexus; conditions: scored visually after about 3 weeks vs untreated controls (100% = plants have died)
Method in brief: as §1

KCHSC [8] = experiment: Pre-emergence action against KCHSC, 1280 g/ha; type: in vivo, Bassia scoparia; conditions: scored visually after about 3 weeks vs untreated controls (100% = plants have died)
Method in brief: as §1

MATIN [9] = experiment: Pre-emergence action against MATIN, 1280 g/ha; type: in vivo, Tripleurospermum inodorum (Matricaria inodora); conditions: scored visually after about 3 weeks vs untreated controls (100% = plants have died)
Method in brief: as §1

STEME [10] = experiment: Pre-emergence action against STEME, 1280 g/ha; type: in vivo, Stellaria media; conditions: scored visually after about 3 weeks vs untreated controls (100% = plants have died)
Method in brief: as §1

VERPE [11] = experiment: Pre-emergence action against VERPE, 1280 g/ha; type: in vivo, Veronica persica; conditions: scored visually after about 3 weeks vs untreated controls (100% = plants have died)
Method in brief: as §1

ALOMY [12] = experiment: Post-emergence action against ALOMY, 1.28 kg/ha; type: in vivo, Alopecurus myosuroides; conditions: dosage 1280 g/ha, visual rating about 3 weeks after treatment vs untreated controls
Method in brief: (§2)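 Visual rating against untreated plants about 3 weeks after spraying gives % activity, where 0% means like controls and 100% means plants died. Plants were treated post-emergence at the one-leaf stage with compound formulated as wettable powder or emulsion concentrate, applied at 600 L water/ha plus 0.5% additive.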

DIGSA [13] = experiment: Post-emergence action against DIGSA, 1.28 kg/ha; type: in vivo, Digitaria sanguinalis; conditions: dosage 1280 g/ha, visual rating about 3 weeks after treatment vs untreated controls
Method in brief: as §2

ECHCG [14] = experiment: Post-emergence action against ECHCG, 1.28 kg/ha; type: in vivo, Echinochloa crus-galli; conditions: dosage 1280 g/ha, visual rating about 3 weeks after treatment vs untreated controls
Method in brief: as §2

POAAN [15] = experiment: Post-emergence action against POAAN, 1.28 kg/ha; type: in vivo, Poa annua; conditions: dosage 1280 g/ha, visual rating about 3 weeks after treatment vs untreated controls
Method in brief: as §2

ABUTH [16] = experiment: Post-emergence action against ABUTH, 1.28 kg/ha; type: in vivo, Abutilon theophrasti; conditions: dosage 1280 g/ha, visual rating about 3 weeks after treatment vs untreated controls (100% = plants died)
Method in brief: as §2

AMARE [17] = experiment: Post-emergence action against AMARE, 1.28 kg/ha; type: in vivo, Amaranthus retroflexus; conditions: dosage 1280 g/ha, visual rating about 3 weeks after treatment vs untreated controls (100% = plants died)
Method in brief: as §2

MATIN [18] = experiment: Post-emergence action against MATIN, 1.28 kg/ha; type: in vivo, Tripleurospermum inodorum (Matricaria inodora); conditions: dosage 1280 g/ha, visual rating about 3 weeks after treatment vs untreated controls (100% = plants died)
Method in brief: as §2

STEME [19] = experiment: Post-emergence action against STEME, 1.28 kg/ha; type: in vivo, Stellaria media; conditions: dosage 1280 g/ha, visual rating about 3 weeks after treatment vs untreated controls (100% = plants died)
Method in brief: as §2

VERPE [20] = experiment: Post-emergence action against VERPE, 1.28 kg/ha; type: in vivo, Veronica persica; conditions: dosage 1280 g/ha, visual rating about 3 weeks after treatment vs untreated controls (100% = plants died)
Method in brief: as §2

KCHSC [21] = experiment: Post-emergence action against KCHSC, 1.28 kg/ha; type: in vivo, Bassia scoparia; conditions: dosage 1280 g/ha, visual rating about 3 weeks after treatment vs untreated controls (100% = plants died)
Method in brief: as §2

SETVI [22] = experiment: Post-emergence action against SETVI, 1.28 kg/ha; type: in vivo, Setaria viridis; conditions: dosage 1280 g/ha, visual rating about 3 weeks after treatment vs untreated controls
Method in brief: as §2

Row | SMILES | Pre-emergence action against DIGSA (DIGSA [2]) | Pre-emergence action against ECHCG (ECHCG [3]) | Pre-emergence action against LOLRI (LOLRI) | Pre-emergence action against POAAN (POAAN [4]) | Pre-emergence action against SETVI (SETVI [5]) | Pre-emergence action against ABUTH (ABUTH [6]) | Pre-emergence action against AMARE (AMARE [7]) | Pre-emergence action against KCHSC (KCHSC [8]) | Pre-emergence action against MATIN (MATIN [9]) | Pre-emergence action against STEME (STEME [10]) | Pre-emergence action against VERPE (VERPE [11]) | Post-emergence action against DIGSA (DIGSA [13]) | Post-emergence action against ECHCG (ECHCG [14]) | Post-emergence action against POAAN (POAAN [15]) | Post-emergence action against ABUTH (ABUTH [16]) | Post-emergence action against AMARE (AMARE [17]) | Post-emergence action against MATIN (MATIN [18]) | Post-emergence action against STEME (STEME [19]) | Post-emergence action against VERPE (VERPE [20]) | Post-emergence action against KCHSC (KCHSC [21]) | also measured
1 | O=C(COc1nn(-c2ccccc2F)c(-c2ccc(F)nc2)c1Br)NS(=O)(=O)CC(F)(F)F [Example X-003] | 100% | 100% | 100% | 100% | 100% | 90% | 100% | 90% | 100% | 100% | 100% | 100% | 90% | 100% | 90% | 90% | 100% | 90% | 90% | – | Pre-emergence action against ALOMY (ALOMY [1]): 90%; Post-emergence action against ALOMY (ALOMY [12]): 100%
2 | C=CCNC(=O)COc1nn(-c2ccccc2F)c(-c2cncnc2)c1Br [IX-001] | 100% | 90% | 100% | 100% | 100% | 100% | 100% | 100% | 100% | 100% | 100% | 100% | 90% | – | 90% | – | 90% | 100% | 100% | 90% | –
3 | O=C(O)COc1nn(-c2ccccc2F)c(-c2ccc(F)nc2)c1Br [VI-003] | 100% | 100% | 90% | 100% | 100% | 90% | 100% | – | 100% | 90% | 100% | 100% | 100% | 100% | 90% | 90% | 100% | – | 90% | 90% | Pre-emergence action against ALOMY (ALOMY [1]): 90%; Post-emergence action against SETVI (SETVI [22]): 100%
4 | O=C(O)COc1nn(-c2ccccc2F)c(-c2ccc(F)nc2)c1C(F)(F)F [VII-030] | 90% | 90% | 100% | 100% | 100% | 90% | 100% | 90% | 90% | 100% | 90% | – | 100% | 100% | 90% | 90% | – | 100% | 90% | 90% | Post-emergence action against ALOMY (ALOMY [12]): 100%
